Experimental data from patent publication US20240199546A1, “INHIBITORS OF SOLUTE CARRIER FAMILY 6A MEMBER 19 (SLC6A19) AND METHODS OF USE THEREOF” (Maze Therapeutics, Inc., priority 2022, published 2024).

Molecular target: T1, human SLC6A19 and TMEM27 (Homo sapiens, UniProt Q695T7)
T1 construct: expressed in transfected cells
T1 sequence (Q695T7 1-634): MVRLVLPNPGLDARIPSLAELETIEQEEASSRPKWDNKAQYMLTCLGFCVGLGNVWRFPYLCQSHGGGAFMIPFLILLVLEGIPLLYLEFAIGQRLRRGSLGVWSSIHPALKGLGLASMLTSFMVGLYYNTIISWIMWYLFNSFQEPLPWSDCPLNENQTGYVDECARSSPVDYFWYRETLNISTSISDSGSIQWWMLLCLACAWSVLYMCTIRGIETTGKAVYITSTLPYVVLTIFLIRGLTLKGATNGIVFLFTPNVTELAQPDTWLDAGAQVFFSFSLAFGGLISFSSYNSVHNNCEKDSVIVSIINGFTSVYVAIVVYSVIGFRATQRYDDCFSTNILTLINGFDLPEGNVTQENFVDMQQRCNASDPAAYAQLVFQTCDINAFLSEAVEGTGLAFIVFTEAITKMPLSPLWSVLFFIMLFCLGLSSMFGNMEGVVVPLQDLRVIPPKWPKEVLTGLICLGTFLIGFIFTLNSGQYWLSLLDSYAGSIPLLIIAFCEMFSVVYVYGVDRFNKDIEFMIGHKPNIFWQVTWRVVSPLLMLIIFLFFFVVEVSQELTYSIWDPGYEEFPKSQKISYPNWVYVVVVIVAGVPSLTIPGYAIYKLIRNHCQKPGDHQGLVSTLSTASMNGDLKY
T1 sequence (Q9HBJ8 15-222 partner): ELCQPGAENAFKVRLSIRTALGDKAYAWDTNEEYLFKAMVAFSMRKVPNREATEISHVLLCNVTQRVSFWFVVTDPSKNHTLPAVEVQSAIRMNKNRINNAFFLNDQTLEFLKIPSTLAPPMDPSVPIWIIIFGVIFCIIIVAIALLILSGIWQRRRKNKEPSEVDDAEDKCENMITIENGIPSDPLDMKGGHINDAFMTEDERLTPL
Test: 13C6,15N-isoleucine uptake in CHO cells with doxycycline-inducible expression of human SLC6A19 and TMEM27, RapidFire mass spectrometry (Example B-2)
Format: cell-based
Conditions: read-out: SLC6A19_RapidFire Uptake Assay IC50
Experimental: Assay ready vials of CHO cells with doxycycline inducible expression of human SLC6A19 and TMEM27 were thawed, plated in T175 flasks containing DMEM/F12 media, 10% FBS, 1% Penicillin-Streptomycin, 1× UltraGlutamate, 1 mM Sodium Pyruvate, Sodium Bicarbonate (7.5 mL of 7.5% solution in 500 mL media final), 5 μg/mL Blasticidin, 150 μg/mL Hygromycin B Gold, and 500 μg/mL G418, and incubated (humidified, 37° C. with 5% CO2) for 48 hours. Media was then removed, flasks were washed with 20 mL of DPBS, and 5 mL of TrypLE™ Express was added to each flask to initiate cell dissociation. After 5 minutes, 10 mL of cell culture media was added to each flask and mixed. The cell suspension was collected and centrifuged for 5 minutes at 200×g. The supernatant was removed, and the pellet was resuspended in 10 mL of cell culture media. Resuspended cells were counted using a Vi-Cell. 30 μL/well (20,000 cells/well) of cell suspension was added to Poly-D-Lysine 384-well black/clear plates. Plates were incubated (humidified, 37° C. with 5% CO2) for 24 hours. To induce expression of human SLC6A19 and TMEM27, 10 μL of assay culture media containing 4 μg/mL doxycycline was added to each well. Assay plates were then incubated (humidified, 37° C. with 5% CO2) overnight. After incubation, the media was removed, and wells were washed 3 times with 40 μL of warmed DPBS. Next, 10 μL of warmed assay buffer (137 mM NaCl, 5 mM KCl, 1 mM CaCl2), 1 mM MgCl2, 10 mM HEPES, 10 mM glucose, pH 7.2) was added to each well. 10 μL/well of test compound or positive control compound to define 0% activity (i.e., 100% inhibition), was then added into each well. All compounds were plated in a duplicate 10-point dilution series that consisted of 2-fold dilutions. The plates were incubated (humidified, 37° C. with 5% C2) with compound for 20 minutes. Afterwards, 20 μL/well of 2 mM 13C6,15N-1-isoleucine was added to each well and plates were incubated again (humidified, 37° C. with 5% C02) for another 20 minutes. Assay buffer was then removed, and plates were washed. 70 μL/well of stop solution (75% acetonitrile, 25% HPLC grade water, 250 nM 1-leucine-1-13C (RapidFire standard)) was added to each well. The plates were sealed and then placed in a −20° C. freezer for 20 minutes. The plates were thawed at room temperature for 20 minutes and then centrifuge for 20 minutes at 3000 rpm. Using an ABSciex API4000 mass spectrometer, processed samples were loaded onto the graphitic carbon SPE-column. The time for aspiration, load/wash, elution and re-equilibration time was 600, 1500, 3000 and 500 milliseconds, respectively. Peak areas were calculated using RapidFire Integrator software.

| SMILES | IC50 |
| --- | --- |
| CC1(C(=O)NCc2cc3cc(Cl)c(OCc4cccnc4)cc3[nH]2)CC1 [Compound 39, N-((5-chloro-6-(pyridin-3-ylmethoxy)-1H-indol-2-yl)methyl)-1-methylcyclopropane-1-carboxamide] | 370 nM |
| CC1(C(=O)NCc2cc3cc(Cl)c(OCc4nccs4)cc3[nH]2)CC1 [Compound 40, N-((5-chloro-6-(thiazol-2-ylmethoxy)-1H-indol-2-yl)methyl)-1-methylcyclopropane-1-carboxamide] | 64 nM |
| Cc1cccc(COc2cc3[nH]c(CNC(=O)C4(C)CC4)cc3cc2Cl)n1 [Compound 42, N-((5-chloro-6-((6-methylpyridin-2-yl)methoxy)-1H-indol-2-yl)methyl)-1-methylcyclopropane-1-carboxamide] | 1620 nM |
| CC1(C(=O)NCc2cc3ccc(OCc4ncccn4)cc3[nH]2)CC1 [Compound 51, 1-methyl-N-((6-(pyrimidin-2-ylmethoxy)-1H-indol-2-yl)methyl)cyclopropane-1-carboxamide] | 4390 nM |
| CC1(C(=O)NCc2cc3ccc(OCc4cncnc4)cc3[nH]2)CC1 [Compound 52, 1-methyl-N-((6-(pyrimidin-5-ylmethoxy)-1H-indol-2-yl)methyl)cyclopropane-1-carboxamide] | 2110 nM |
| CC1(C(=O)NCc2cc3ccc(OCc4ccncn4)cc3[nH]2)CC1 [Compound 53, 1-methyl-N-((6-(pyrimidin-4-ylmethoxy)-1H-indol-2-yl)methyl)cyclopropane-1-carboxamide] | 4820 nM |
| CC1(C(=O)NCc2cc3ccc(OCc4ccccn4)cc3[nH]2)CC1 [Compound 54, 1-methyl-N-((6-(pyridin-2-ylmethoxy)-1H-indol-2-yl)methyl)cyclopropane-1-carboxamide] | 155 nM |
| CC1(C(=O)NCc2cc3ccc(OCc4cccnc4)cc3[nH]2)CC1 [Compound 55, 1-methyl-N-((6-(pyridin-3-ylmethoxy)-1H-indol-2-yl)methyl)cyclopropane-1-carboxamide] | 427 nM |
| CC1(C(=O)NCc2cc3cc(F)c(OCc4cnco4)cc3[nH]2)CC1 [Compound 57, N-((5-fluoro-6-(oxazol-5-ylmethoxy)-1H-indol-2-yl)methyl)-1-methylcyclopropane-1-carboxamide] | 577 nM |
| O=C(NCc1cc2ccc(OCc3ccon3)cc2[nH]1)N1CCCC1 [Compound 104, N-((6-(isoxazol-3-ylmethoxy)-1H-indol-2-yl)methyl)pyrrolidine-1-carboxamide] | 452 nM |
| O=C(NCc1cc2ccc(OCc3cocn3)cc2[nH]1)N1CCCC1 [Compound 105, N-((6-(oxazol-4-ylmethoxy)-1H-indol-2-yl)methyl)pyrrolidine-1-carboxamide] | 644 nM |
| O=C(NCc1cc2ccc(OCc3cncs3)cc2[nH]1)N1CCCC1 [Compound 106, N-((6-(thiazol-5-ylmethoxy)-1H-indol-2-yl)methyl)pyrrolidine-1-carboxamide] | 613 nM |
| CNC(=O)NCc1cc2ccc(OCc3ccon3)cc2[nH]1 [Compound 107, 1-((6-(isoxazol-3-ylmethoxy)-1H-indol-2-yl)methyl)-3-methylurea] | 5890 nM |
| CNC(=O)NCc1cc2ccc(OCc3cocn3)cc2[nH]1 [Compound 108, 1-methyl-3-((6-(oxazol-4-ylmethoxy)-1H-indol-2-yl)methyl)urea] | 5570 nM |
| CNC(=O)NCc1cc2cc(Cl)c(OCc3cncs3)cc2[nH]1 [Compound 109, 1-((5-chloro-6-(thiazol-5-ylmethoxy)-1H-indol-2-yl)methyl)-3-methylurea] | 515 nM |
| CNC(=O)NCc1cc2cc(Cl)c(OCc3ccon3)cc2[nH]1 [Compound 110, 1-((5-chloro-6-(isoxazol-3-ylmethoxy)-1H-indol-2-yl)methyl)-3-methylurea] | 464 nM |
| CNC(=O)NCc1cc2cc(Cl)c(OCc3cocn3)cc2[nH]1 [Compound 111, 1-((5-chloro-6-(oxazol-4-ylmethoxy)-1H-indol-2-yl)methyl)-3-methylurea] | 586 nM |

More lines, now with the values ahead:

| IC50 | SMILES |
| --- | --- |
| 192 nM | CC1(C(=O)NCc2cc3ccc(OCc4nccs4)cc3[nH]2)CC1 [Compound 43, 1-methyl-N-((6-(thiazol-2-ylmethoxy)-1H-indol-2-yl)methyl)cyclopropane-1-carboxamide] |
| 838 nM | CC1(C(=O)NCc2cc3ccc(OCc4ccc(Cl)cc4)cc3[nH]2)CC1 [Compound 44, N-((6-((4-chlorobenzyl)oxy)-1H-indol-2-yl)methyl)-1-methylcyclopropane-1-carboxamide] |
| 698 nM | CCC(=O)NCc1cc2ccc(OCc3cc(C)on3)cc2[nH]1 [Compound 47, N-((6-((5-methylisoxazol-3-yl)methoxy)-1H-indol-2-yl)methyl)propionamide] |
| 493 nM | CC1(C(=O)NCc2cc3ccc(OCc4cncs4)cc3[nH]2)CC1 [Compound 48, 1-methyl-N-((6-(thiazol-5-ylmethoxy)-1H-indol-2-yl)methyl)cyclopropane-1-carboxamide] |
| 412 nM | CC1(C(=O)NCc2cc3ccc(OCc4cocn4)cc3[nH]2)CC1 [Compound 49, 1-methyl-N-((6-(oxazol-4-ylmethoxy)-1H-indol-2-yl)methyl)cyclopropane-1-carboxamide] |
| 193 nM | Cc1cc(COc2ccc3cc(CNC(=O)C4(C)CC4)[nH]c3c2)no1 [Compound 50, 1-methyl-N-((6-((5-methylisoxazol-3-yl)methoxy)-1H-indol-2-yl)methyl)cyclopropane-1-carboxamide] |
| 1950 nM | CC1(C(=O)NCc2cc3ccc(OCc4ccncc4)cc3[nH]2)CC1 [Compound 56, 1-methyl-N-((6-(pyridin-4-ylmethoxy)-1H-indol-2-yl)methyl)cyclopropane-1-carboxamide] |
| 493 nM | CC1(C(=O)NCc2cc3ccc(OCc4ccno4)cc3[nH]2)CC1 [Compound 62, N-((6-(isoxazol-5-ylmethoxy)-1H-indol-2-yl)methyl)-1-methylcyclopropanecarboxamide] |
| 464 nM | CC1(C(=O)NCc2cc3ccc(CCc4ccon4)cc3[nH]2)CC1 [Compound 75, N-((6-(2-(isoxazol-3-yl)ethyl)-1H-indol-2-yl)methyl)-1-methylcyclopropanecarboxamide] |
| 355 nM | Cc1cc(CCc2ccc3cc(CNC(=O)C4(C)CC4)[nH]c3c2)no1 [Compound 77, 1-methyl-N-((6-(2-(5-methylisoxazol-3-yl)ethyl)-1H-indol-2-yl)methyl)cyclopropane-1-carboxamide] |
| 5180 nM | Cc1cc(Oc2ccc3cc(CNC(=O)C4(C)CC4)[nH]c3c2)no1 [Compound 78, 1-methyl-N-((6-((5-methylisoxazol-3-yl)oxy)-1H-indol-2-yl)methyl)cyclopropanecarboxamide] |
| 43.4 nM | CC1(C(=O)NCc2cc3ccc(OCc4ccsn4)cc3[nH]2)CC1 [Compound 94, N-((6-(isothiazol-3-ylmethoxy)-1H-indol-2-yl)methyl)-1-methylcyclopropanecarboxamide] |
| 267 nM | CCc1cc(COc2cc3[nH]c(CNC(=O)C4(C)CC4)cc3cc2Cl)no1 [Compound 95] |
